In the assay the target is MELK (Homo sapiens, UniProt Q14680). As to the kind of experiment: Kinase assay: MELK activity, phosphorylation of FITC-labeled histone H3 peptide measured by IMAP fluorescence polarization. In kind it is biochemical. To be noted: read-out: IC50 (μM) (kinase assay). On the procedure:
MELK activity was determined in the presence or absence of compounds using fluorescein isothiocyanate-labeled (FITC-labeled) histone H3 peptide as a substrate. […] Test compounds were dissolved in DMSO at 12.5 mM and then serially diluted as the DMSO concentration in the assays to be 1%. […] The reaction was stopped by the addition of three fold assay volume of progressive binding solution. Following 0.5 hour incubation at room temperature, fluorescence polarization was measured by Wallac EnVision 2103 multilabel reader (PerkinElmer).
On the technique in general: Polarisation of emitted light reports the rotation of a fluorescent probe.

Where [1] appears, read: MELK kinase assay, IMAP fluorescence polarization, 50 micro-M ATP.

Counter-ions that a name gives are not always drawn. Like-named read-outs stand apart in the source and are kept apart here.

MELK, sequence (Q14680 whole entry, looked up): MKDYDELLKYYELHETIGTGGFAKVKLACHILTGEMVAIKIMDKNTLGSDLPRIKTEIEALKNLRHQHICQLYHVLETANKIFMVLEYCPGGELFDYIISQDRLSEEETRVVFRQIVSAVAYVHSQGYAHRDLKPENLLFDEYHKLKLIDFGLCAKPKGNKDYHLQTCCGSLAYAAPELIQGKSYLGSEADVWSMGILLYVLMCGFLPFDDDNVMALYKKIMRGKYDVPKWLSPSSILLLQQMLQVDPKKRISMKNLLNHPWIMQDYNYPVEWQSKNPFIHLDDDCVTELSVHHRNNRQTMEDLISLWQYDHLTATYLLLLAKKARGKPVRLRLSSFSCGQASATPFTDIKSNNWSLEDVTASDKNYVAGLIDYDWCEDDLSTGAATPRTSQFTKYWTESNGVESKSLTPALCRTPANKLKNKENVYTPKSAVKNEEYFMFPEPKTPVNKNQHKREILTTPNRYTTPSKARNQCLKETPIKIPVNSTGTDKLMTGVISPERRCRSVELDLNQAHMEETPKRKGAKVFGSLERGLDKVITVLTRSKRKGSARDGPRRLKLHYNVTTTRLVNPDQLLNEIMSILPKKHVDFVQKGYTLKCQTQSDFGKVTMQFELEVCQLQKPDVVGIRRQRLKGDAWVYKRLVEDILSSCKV

One may read the IC50 as the midpoint of a concentration-inhibition curve. Take `CC(=O)c1cnc2ccc(-c3cc(F)c(O)c(Cl)c3)cc2c1N[C@H]1CC[C@H](CN(C)C)CC1` [Example 378, 1-(6-(3-chloro-5-fluoro-4-hydroxyphenyl)-4-((trans)-4-((dimethylamino)methyl)cyclohexylamino)quinolin-3-yl) ethanone]: under setting [1], the IC50 turned out to be 0.0061 µM.

For `CN(C)[C@H]1CC[C@H](Nc2c(C(=O)C3CC3)cnc3ccc(-c4cc(Cl)c(O)c(Cl)c4)cc23)CC1` [Example 941, cyclopropyl(6-(3,5-dichloro-4-hydroxyphenyl)-4-((1R,4R)-4-(dimethylamino)cyclohexylamino)quinolin-3-yl)methanone, dihydrobromide], the IC50 under setting [1] was 0.0016 µM.

With `CN(C)C[C@H]1CC[C@H](Nc2c(C(=O)C3CC3)cnc3cc(C(F)(F)F)c(-c4cc(Cl)c(O)c(Cl)c4)cc23)CC1` [Example 842], under setting [1], the IC50 came to 0.93 µM.

In the case of `CC(=O)c1cnc2cc(C)c(-c3cc(F)c(O)c(Cl)c3)cc2c1Nc1ccc(N2CCN(C)CC2)nc1` [Example 856, 1-(6-(3-chloro-5-fluoro-4-hydroxy-phenyl)-7-methyl-4-((6-(4-methyl-piperazin-1-yl)pyridin-3-yl)amino)quinolin-3-yl)ethanone hydrochloride], under setting [1], the IC50 turned out to be 0.46 µM.

Turning to `CC(=O)c1cnc2ccc(-c3ccc4nc[nH]c4c3)cc2c1Nc1ccc(N2CCC(N(C)C)C2)nc1` (centres unmarked) [Example 905, 1-(6-(1H-benzo[d]imidazol-6-yl)-4-((6-(3-(dimethylamino)pyrrolidin-1-yl)pyridin-3-yl)amino)quinolin-3-yl) ethanone hydrochloride], the IC50 under setting [1] stood at 0.11 µM.

In the case of `CC(=O)c1c(C)nc2ccc(-c3cc(Cl)c(O)c(Cl)c3)cc2c1N[C@H]1CC[C@H](CN(C)C)CC1` [Example 833, 1-(6-(3,5-dichloro-4-hydroxyphenyl)-4-(1R,4R)-4-((dimethylamino)methyl)cyclohexylamino)-2-methylquinolin-3-yl)ethanone hydrochloride], under setting [1], the IC50 amounted to 0.17 µM.

With `CN(C)[C@H]1CC[C@H](Nc2c(C(=O)C3CC3)cnc3ccc(-c4cc(F)c(O)c(Cl)c4)cc23)CC1` [Example 264, (6-(3-chloro-5-fluoro-4-hydroxyphenyl)-4-((1R,4R)-4-(dimethylamino)cyclohexylamino)quinolin-3-yl)(cyclopropyl)methanone], the IC50 under setting [1] came out at 0.0029 µM.

Take `CC(=O)c1cnc2ccc(-c3ccncc3)cc2c1N[C@H]1CC[C@H](CN(C)C)CC1` [Example 908, 1-(4-((1R,4R)-4-((dimethylamino)methyl)cyclohexyl)amino)-6-(pyridin-4-yl)quinolin-3-yl)ethanone hydrochloride]: the IC50 under setting [1] is 0.23 µM.

Regarding `CC(=O)c1cnc2ccc(-c3ccc4nc[nH]c4c3)cc2c1Nc1cccc(CCN2CCCC2)c1` [Example 896, 1-(6-(1H-benzo[d]imidazol-6-yl)-4-((3-(2-(pyrrolidin-1-yl)ethyl)phenyl)amino)quinolin-3-yl)ethanone hydrochloride], the IC50 under setting [1] turned out to be 0.22 µM.

Turning to `COc1ccc2c(c1)CN(c1ccc3ncc(C(C)=O)c(N[C@H]4CC[C@H](CN(C)C)CC4)c3c1)C2=O` [Example 933], under setting [1], the IC50 worked out at 1.2 µM.

Take `CC(=O)c1cnc2cc(C)c(-c3cc(F)c(O)c(Cl)c3)cc2c1Nc1ccc(CN(C)C)cc1` [Example 858, 1-(6-(3-chloro-5-fluoro-4-hydroxy-phenyl)-4-((4-((dimethylamino)methyl)phenyl)amino)-7-methylquinolin-3-yl)ethanone hydrochloride]: under setting [1], the IC50 came to 0.2 µM.

On to `O=C(c1cnc2ccc(-c3cc(Cl)c(O)c(Cl)c3)cc2c1Nc1ccc(CN2CCCC2)cc1)C1CC1` [Example 366, Cyclopropyl{6-(3,5-dichloro-4-hydroxyphenyl)-4-[4-(pyrrolidin-1-ylmethyl)phenylamino]quinolin-3-yl}methanone], for which the IC50 under setting [1] turned out to be 0.15 µM.

On to `CC(=O)c1cnc2cc(C)c(-c3cc(Cl)c(O)c(Cl)c3)cc2c1N[C@H]1CC[C@H](CN(C)C)CC1` [Example 857], for which the half-inhibitory concentration (IC50) under setting [1] is 3.4 µM.

Take `CC(=O)c1c(C)nc2ccc(-c3cc(F)c(O)c(Cl)c3)cc2c1N[C@H]1CC[C@H](CN(C)C)CC1` [Example 834, 1-(6-(3-chloro-5-fluoro-4-hydroxy-phenyl)-4-(1R,4R)-4-((dimethylamino)methyl)cyclohexylamino)-2-methyl-quinolin-3-yl)ethanone hydrochloride]: the IC50 under setting [1] was determined as 0.82 µM.

For `CN1CCN(c2ccc(Nc3c(C(=O)C4CC4)cnc4cc(C(F)(F)F)c(-c5cc(Cl)c(O)c(Cl)c5)cc34)cn2)CC1` [Example 839, cyclopropyl(6-(3,5-dichloro-4-hydroxy-phenyl)-4-(6-(4-methylpiperazin-1-yl)pyridin-3-ylamino)-7-(trifluoro-methyl)quinolin-3-yl)methanone], the IC50 under setting [1] was found to be 4.2 µM.

As to `CC(=O)c1cnc2ccc(-c3cc(Cl)c(O)c(Cl)c3)cc2c1N[C@H]1CC[C@H](N)CC1` [Example 939, 1-(4-((1R,4R)-4-aminocyclohexylamino)-6-(3,5-dichloro-4-hydroxyphenyl)quinolin-3-yl)ethanone, hydrochloride], the IC50 under setting [1] was determined as 0.0034 µM.

`CN(C)C[C@H]1CC[C@H](Nc2c(C(=O)C3CC3)cnc3cc(C(F)(F)F)c(-c4cc(F)c(O)c(Cl)c4)cc23)CC1` [Example 841]: under setting [1], the IC50 came to 0.77 µM.

Take `CN(CCO)C[C@H]1CC[C@H](Nc2c(C(=O)C3CC3)cnc3ccc(-c4cc(Cl)c(O)c(Cl)c4)cc23)CC1` [Example 635, cyclopropyl(6-(3,5-dichloro-4-hydroxyphenyl)-4-(1R,4R)-4-(((2-hydroxyethyl)(methyl)amino)methyl)cyclohexylamino)quinolin-3-yl)methanone hydrochloride]: the IC50 (hydrochloride) worked out at 0.00074 µM.

`COc1cc(-c2ccc3ncc(C(C)=O)c(N[C@H]4CC[C@H](N)CC4)c3c2)cc(Cl)c1O` [Example 940, 1-(4-((1R,4R)-4-aminocyclohexylamino)-6-(3-chloro-4-hydroxy-5-methoxyphenyl)quinolin-3-yl)ethanone, hydrochloride]: the 50% inhibitory concentration (IC50) under setting [1] came out at 0.0012 µM.

On to `CN1CCN(c2ccc(Nc3c(C(=O)C4CC4)cnc4cc(C(F)(F)F)c(-c5cc(F)c(O)c(Cl)c5)cc34)cn2)CC1` [Example 840, (6-(3-chloro-5-fluoro-4-hydroxyphenyl)-4-(6-(4-methylpiperazin-1-yl)pyridin-3-ylamino)-7-(trifluoromethyl)quinolin-3-yl)(cyclopropyl)methanone], for which the IC50 under setting [1] was 3.1 µM.

Regarding `CC(=O)c1cnc2cc(C)c(-c3cc(F)c(O)c(Cl)c3)cc2c1N[C@H]1CC[C@H](CN(C)C)CC1` [Example 859, 1-(6-(3-chloro-5-fluoro-4-hydroxy-phenyl)-4-((1R,4R)-4-((dimethylamino)methyl)cyclohexyl)amino)-7-methyl-quinolin-3-yl)ethanone hydrochloride], the IC50 under setting [1] turned out to be 0.84 µM.

As for `CC(C)C(=O)c1cnc2ccc(-c3cc(F)c(O)c(Cl)c3)cc2c1N[C@H]1CC[C@H](N)CC1` [Example 937, 1-(4-((1R,4R)-4-aminocyclohexylamino)-6-(3-chloro-5-fluoro-4-hydroxyphenyl)quinolin-3-yl)-2-methylpropan-1-one, dihydrochloride], under setting [1], the IC50 was determined as 0.0054 µM.

For the compound `N[C@H]1CC[C@H](Nc2c(C(=O)C3CC3)cnc3ccc(-c4cc(F)c(O)c(Cl)c4)cc23)CC1` [Example 936, (4-((1R,4R)-4-aminocyclohexylamino)-6-(3-chloro-5-fluoro-4-hydroxyphenyl)quinolin-3-yl)(cyclopropyl)methanone, hydrochloride], under setting [1], the IC50 was found to be 0.0019 µM.

(Values after US9120749B2, “Quinoline derivatives and MELK inhibitors containing the same” (ONCOTHERAPY SCIENCE, INC., priority 2010, dated 2015).)
